Laboratory results as given in patent US20030190364A1, “Biological affinity based delivery systems” (priority 2002, published 2003).
Where two headings read alike, the source gives them in different places. Where no end group is shown, it is not given here. [ ]: non-standard residue; d: D form. The star is where a group is joined. FITC = O=C1OC2(c3ccc(O)cc3Oc3cc(O)ccc32)c2ccc(NC(=S)*)cc21; Dansyl = CN(C)c1cccc2c(S(=O)(=O)*)cccc12; βAla = NCCC(=O)O

Legend:
[1] = Heparin affinity column, NaCl concentration required for elution; format: binding; settings: 50 mM sodium phosphate pH 7.5, gradient 0 to 2 M NaCl over 20 column volumes
Procedure: For purposes of the present invention, conditions for determining the affinity of the PB polypeptides (and/or the therapeutic agent) for heparin are as follows: The polypeptide is solubilized in 50 mM sodium phosphate buffer, pH 7.5 to a final concentration of 0.5 mg/ml. 1 mg of the polypeptide is loaded onto an Amersham Biosciences HiPrep 16/10 Heparin FF column (or suitable equivalent) at a flow rate of 5 ml/min at 25° C. After loading the polypeptide, a salt gradient is introduced to the column by increasing the sodium chloride content of the buffer from 0 to 2 M NaCl over 20 column volumes. The recorded NaCl concentration required for elution is determined by correlating the maximum absorbance value at 280 and/or 215 nm for each spectrum to the value of the gradient at that time point.
FIG. 4 is a chart depicting the relative heparin affinity of various heparin-binding peptides. Each peptide was solubilized in 50 mM sodium phosphate buffer, pH 7.5 to a final concentration of 0.5 mg/ml. Then, 1 mg of each peptide was loaded onto an Amersham Biosciences HiPrep 16/10 Heparin FF column at a flow rate of 5 ml/min. After loading the peptide, a salt gradient was introduced to the column by increasing the sodium chloride content of the buffer from 0 to 2 M NaCl over 20 column volumes. The recorded NaCl concentration required for elution was determined by correlating the maximum absorbance value at 280 and/or 215 nm for each spectrum to the value of the gradient at that time point.

[2] = cited from earlier work
[3] = Relative affinity to heparin of synthesized peptides (Table 2); format: binding; settings: corresponds to the bold-faced amino acids of the sequence
[4] = Dissociation constant (KD) of peptides from heparin, literature values; format: binding; settings: PBD3 versus PBD2
[5] = references [1], [2], read-out: Affinity to Heparin (KD)

Row | Substance | NaCl Elution Conc. [1] [mM] | also measured
1 | AKLNCRLYRKANKSSKL [PBD8] | 481.2 | –
2 | WKA(β)FAKLNCRLYRKA (WK[βAla]FAKLNCRLYRKA) [PBD7] | 422.6 | –
3 | FITC-A(β)AAFAKLAARLYRKAGC ({FITC}-[βAla]AAFAKLAARLYRKAGC) [PBD2] | 354.8 | Kd [2, 5]: 370 nM
4 | Dansyl-GYGRKKRRQRRR [Dansyl-TAT] | 727.6 | –
5 | KAFAKLAARLYRKAGC [HBD-high] | – | Relative Affinity to Heparin [3]: 100%
6 | FITC-A(β)YGRKKRRQRRR (AYGRKKRRQRRR; N-terminal FITC-beta-alanine) [FITC-TAT] | 703.6 | –
7 | dansyl-GKAFAKLAARLYRKAGC (Dansyl-GKAFAKLAARLYRKAGC) [PBD1] | 685.9 | –
8 | FITC-A(β)KAFAALAARLYRKAGC ({FITC}-[βAla]KAFAALAARLYRKAGC) [PBD3, PBD3 control is the same peptide tested without heparin] | 313.0 | dissociation constant relative to that of PBD2 [4]: 1.8 times; Kd [2, 5]: 660 nM
9 | FITC-A(β)GGGGYGRKKRRQRRR ({FITC}-[βAla]GGGGYGRKKRRQRRR) [TAT, reference compound] | – | Relative Affinity to Heparin [3]: 170%; Kd ([2]; low molecular weight heparin and heparin to which only one molecule of TAT is bound (Rusnati, 1999), read-out: KD, dissociation constant for TAT from heparin): ~700 nM; Kd [2, 5]: 30 nM
10 | KAFAKLAARLYRKAGC [PBD1-A] | 325.0 | –
11 | FITC-A(β)KAFAKLAARLYRKAGC ({FITC}-[βAla]KAFAKLAARLYRKAGC) [FITC-PBD1] | 438.8 | –
12 | AAFAKLAARLYRKAGC [HBD-low] | – | Relative Affinity to Heparin [3]: 14.3%
